In brackets after ≈: the same amount, converted by molar mass. Several values for one entry are separate records, joined by “and”; a condition that tells them apart may be missing. Equal entries are not always repeated. Residues, ends and D or L forms follow the SMILES beside them.
What was measured:
[1] = system: C. albicans, C. krusei, C. parapsilosis, and C. tropicalis; assay: Anticandidal activity, statements for all strains tested; assay type: cell-based, Candida spp.; settings: peptide 200 to 1.56 μM, 24 h, 37 °C
Protocol: (§1) The anticandidal activity was performed against the following species: C. albicans (ATCC 10231), C. krusei (ATCC 22019), C. parapsilosis (ATCC 6258), and C. tropicalis (INCQS 40042). The cell concentration was standardized by OD600 nm to achieve a concentration of 1.5 × 10^3 CFU/mL. The assays were performed using 96-well microplates, mixing the cell suspensions (100 μL) with 100 μL of each peptide serially diluted (200 to 1.56 μM, final concentrations) in 0.15 M NaCl containing 5% DMSO (dimethyl sulfoxide), which was used as a control. The plates were incubated for 24 h at 37 °C under agitation (150 rpm), and the readings were done at 600 nm using a Microtiter Plate Reader. The results are shown as the percentage of growth, considering the OD600 nm of the control as 100%.

[2] = system: L929 (murine fibroblast) cells; settings: L929, 200 μM
Protocol: Cell viability of peptide-treated fibroblast cells was tested by the MTT method. Shortly, L929 cells were trypsinized (trypsin–EDTA solution) and seeded into 96-well plates with DMEM (100 μL) at 1 × 10^5 cells/mL for 48 h, followed by the addition of the same volume of serially diluted nicotianin-I (200–1.56 μM) and negative control (0.15 M NaCl). The images were captured with the aid of an optical microscope coupled with phase contrast (AE200, Motic, Barcelona, CT, ES) under 200× magnification. Finally, 10 μL of 5 mg/mL MTT was added to each well, and the mixture was incubated at 37 °C for 3 h. Formazan was solubilized with DMSO (150 μL), and the OD570 nm was measured in a microplate reader.

C. krusei (ATCC 22019) = assay type: cell-based, Candida krusei; settings: ATCC 22019, 24 h
Protocol: as §1

[3] = system: human erythrocyte (type O); settings: 200 μM; 1% human erythrocytes, 1 h, 37 °C, OD414; relative to 0.1% Triton-X-100
Protocol: To assess a possible indicator of cytotoxicity, 150 μL of nicotianin-I, serially diluted with 0.15 M NaCl containing 5% DMSO, was incubated at 37 °C for 1 h with the same volume of 1% human erythrocyte (type O), which was obtained from the Hematology and Hemotherapy Center of Ceará, Brazil. Samples were centrifuged for 5 min at 2500g, and the supernatant was transferred to 96-well microplates. Released hemoglobin content was measured at OD414 nm. 0.1% Triton-X-100 and 0.15 M NaCl containing 5% DMSO were used as the positive and negative controls, respectively.

[4] = system: Zebrafish embryos (AB wild-type strain); assay: Fish Embryo Acute Toxicity (FET) test, OECD 236 adapted for 96-well plate; assay type: in vivo
Protocol: Zebrafish embryos (AB wild-type strain) with approximately 1 h postfertilization (hpf) were provided by the Production Unit for Alternative Model Organisms (UniPOM), Federal University of Paraiba (UFPB), João Pessoa, Brazil. A day before the experiment, zebrafish adults (male/female ratio of 2:1) were transferred to a 7 L spawning tank with a bottom mesh and a quick-opening valve for embryo collection. Embryos were collected on the day of the experiment and cultured in the adapted embryonic medium E3 (5.0 mM NaCl, 0.17 mM KCl, 0.33 mM CaCl, and 0.33 mM MgSO4) containing 0.005% methylene blue. Only spawnings with a fertilization rate ≥90% were used. Viable embryos (normal cleavage pattern and without morphological changes) were selected using an inverted light microscope (Televal 31, Zeiss, Germany) at 50× magnification. The experiments were approved by the Ethics Committee on the Use of Animals at UFPB, with authorization documented by protocol no. 4460140920.
The Fish Embryo Acute Toxicity (FET test) test was conducted according to OECD’s guideline number 236 adapted for 96-well plate, as described by Muniz et al. Zebrafish embryos with up to 3 hpf were exposed to five concentrations (6.25, 12.5, 25, 50, and 100 μg/mL) of nicotianin-I, with the last concentration being adopted as a limit concentration. Twenty wells were filled with 0.3 mL of E3 medium and 1 embryo. In the same conditions, E3 medium and 0.15 M NaCl containing 5% DMSO were used as controls.
Embryos showing lethality end points (embryo coagulation, lack of somite formation, nondetachment of the tail bud, and lack of heartbeat) were considered dead. This number was used to determine the survival rate % [number of alive organisms/total number of organisms × 100] per tested concentration. The exposures were under static conditions (without renovation of the exposure solution). Observations were performed using a stereomicroscope at a 50× magnification. After 96 h, the surviving larvae were euthanized with eugenol and properly discarded.

[5] = system: C. tropicalis (INCQS 40042); assay type: cell-based, Candida tropicalis; settings: INCQS 40042, 24 h
Protocol: as §1

[6] = system: C. parapsilosis (ATCC 6258); assay type: cell-based, Candida parapsilosis; settings: ATCC 6258, 24 h
Protocol: as §1

C. albicans (ATCC 10231) = assay type: cell-based, Candida albicans; settings: ATCC 10231, 24 h
Protocol: as §1

C. albicans = settings: cited from earlier work
C. parapsilosis = system: C. parapsilosis; parameters: method as in PMID 35456530; settings: cited from earlier work
zebrafish embryos = settings: cited from earlier work

## CC(C)[C@H](N)C(=O)N[C@@H](CS)C(=O)N1CCC[C@H]1C(=O)N[C@@H](CS)C(=O)N[C@@H](C)C(=O)N[C@@H](CS)C(=O)N[C@@H](CS)C(=O)N[C@@H](CO)C(=O)N[C@H](C(=O)N1CCC[C@H]1C(=O)N[C@@H](CCCNC(=N)N)C(=O)N[C@@H](CCCNC(=N)N)C(=O)N[C@H](C(=O)O)C(C)C)[C@@H](C)O [Pep1] (H-VCPCACCSTPRRV-OH; N-terminus and C-terminus assumed)
[1]
  in vitro antifungal activity (growth inhibition), in words: negligible or no significant inhibition
[2]; MTT, OD570
  reduction of cellular viability (up to): 80.95%

## HRFSYMCFVAQVLNKDYCSCCKF [Pep5, ornamental tobacco floral nectar peptide […]]
[1]
  in vitro antifungal activity (growth inhibition), in words: negligible or no significant inhibition

## CC(C)C[C@H](NC(=O)[C@H](CS)NC(=O)[C@H](Cc1ccc(O)cc1)NC(=O)CNC(=O)[C@H](Cc1c[nH]cn1)NC(=O)[C@H](CCCNC(=N)N)NC(=O)[C@@H](NC(=O)[C@H](CS)NC(=O)[C@H](CO)NC(=O)[C@H](Cc1ccc(O)cc1)NC(=O)[C@H](Cc1c[nH]cn1)NC(=O)[C@@H](N)CCCCN)[C@@H](C)O)C(=O)N[C@@H](C)C(=O)N[C@@H](CS)C(=O)N[C@@H](Cc1ccc(O)cc1)C(=O)N[C@@H](CCCCN)C(=O)N[C@@H](CCCNC(=N)N)C(=O)N[C@@H](Cc1c[nH]c2ccccc12)C(=O)N[C@@H](Cc1ccccc1)C(=O)O [nicotianin-I] (H-KHYSCTRHGYCLACYKRWF-OH)
C. krusei (ATCC 22019)
  IC50: 57 ± 3.7 µM
  MIC: 133 ± 8.6 µM (≈ 322 µg/mL)
[3]
  maximum percentage of hemolysis: 28.1%
[4]; 50 μg/mL (21 μM), 96 h exposure, static, 20 embryos per concentration
  survival rate: 90%
[4]; 100 μg/mL or 42 μM (highest concentration), as stated in the abstract
  mortality rate: 40%
[4]; 6.25–100 μg/mL, 96 h
  blood clotting: n.e. (n.e.: no effect or less than 20% of embryos affected)
  body pigmentation: n.e. (n.e.: no effect or less than 20% of embryos affected)
  eye malformation: n.e. ^b (n.e.: no effect or less than 20% of embryos affected)
  granules around the embryo (LOAEL): 100 µg/mL
  hatching delay (LOAEL): 100 µg/mL
  mouth malformation: n.e. (n.e.: no effect or less than 20% of embryos affected)
  otolith malformation: n.e. (n.e.: no effect or less than 20% of embryos affected)
  pericardial edema: n.e
  spine malformation: n.e. (n.e.: no effect or less than 20% of embryos affected)
  undersize: n.e. (n.e.: no effect or less than 20% of embryos affected)
  yolk sac edema: n.e. (n.e.: no effect or less than 20% of embryos affected)
[4]; nonlethal effects: hatching delay, granules around the embryo
  lowest observed adverse effect level (LOAEL): 100 µg/mL
[4]; zebrafish embryos, 96 h exposure
  LC50 (mortality): 131 µg/mL and 131.85 µg/mL
[4]; zebrafish embryos, 96 h exposure, same value given in μM
  LC50: 54 µM
[5]
  IC50: 24 ± 1.9 µM
  MIC: 86 ± 3.6 µM (≈ 208 µg/mL)
[2]; MTT and phase contrast microscopy
  cytotoxicity to fibroblasts, in words: no cytotoxicity
[6]
  IC50: 46 ± 2.2 µM
  MIC: 141 ± 7.1 µM (≈ 342 µg/mL)
C. albicans (ATCC 10231)
  IC50: 80 ± 4.6 µM
  MIC: 120 ± 9.3 µM (≈ 291 µg/mL)

## LHSGEGSTCYFFKTNPCCCGTWNCT [Pep3, ornamental tobacco floral nectar peptide […]]
[1]
  in vitro antifungal activity (growth inhibition), in words: negligible or no significant inhibition

## C[C@@H]1[C@H](O)[C@@H](C)/C=C/C=C/C=C/C=C/C=C/C=C/C=C/[C@H](O[C@@H]2O[C@H](C)[C@@H](O)[C@H](N)[C@@H]2O)C[C@@H]2O[C@](O)(C[C@@H](O)C[C@@H](O)[C@H](O)CC[C@@H](O)C[C@@H](O)CC(=O)O[C@H]1C)C[C@H](O)[C@H]2C(=O)O [Amphotericin B]
C. albicans
  MIC: 0.25 µg/mL (≈ 0.271 µM)
C. parapsilosis
  MIC: 0.25 µg/mL (≈ 0.271 µM)

## EYCSAKSAKPGVHCRSCALVNMYK [Pep2, ornamental tobacco floral nectar peptide […]]
[1]
  in vitro antifungal activity (growth inhibition), in words: negligible or no significant inhibition

## WKCGSTPAPRKYCTCVAKMW [Pep4, ornamental tobacco floral nectar peptide […]]
[1]
  in vitro antifungal activity (growth inhibition), in words: negligible or no significant inhibition

## C[C@@H]1[C@H](O)[C@@H](C)/C=C/C=C/CC/C=C/C=C/C=C/C=C/C(O[C@H]2O[C@H](C)[C@@H](O)[C@H](N)[C@@H]2O)CC2O[C@](O)(CC(O)C(O)CCC(O)CC(O)CC(O)CC(=O)O[C@H]1C)CC(O)C2C(=O)O (some centres unmarked) [nystatin]
C. albicans
  MIC: 1 µg/mL (≈ 1.08 µM)
C. parapsilosis
  MIC: 1 µg/mL (≈ 1.08 µM)
Zebrafish embryos; zebrafish embryos at 120 h postfertilization
  LC50: 6.2 µg/mL (≈ 6.69 µM)
Zebrafish embryos; zebrafish embryos, Nys 3 × MIC, AmB 3.2 × MIC
  exposure concentration causing cardiac abnormalities (pericardial edema, reduced heartbeat): 3 µg/mL

From PMC12120630, “Nicotianin-I: A Tobacco Floral Nectar Peptide with Anticandidal Activity” (ACS Omega, 2025)
